Laboratory results: EP4603105A1, “PHARMACEUTICAL COMPOSITION CONTAINING CYCLIC COMPOUND HAVING SELECTIVE KRAS INHIBITORY EFFECT AGAINST HRAS AND NRAS” (CHUGAI SEIYAKU KABUSHIKI KAISHA, priority 2022, dated 2024)

How the values were obtained:
[1] = test system: human lung cancer strain NCI-H441; type: cell-based
How it was run: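 Readout: […] after the ATP-based reagent. Compound: serial dilutions in dimethyl sulfoxide.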

HRAS wild-type protein = HRAS wild-type protein (Homo sapiens, UniProt P01112); assay: Binding to HRAS by surface plasmon resonance (SPR), KD and KD ratio to KRAS; details: ratio of KD for HRAS wild-type protein to KD for KRAS
HRAS wild-type protein, sequence (P01112 whole entry): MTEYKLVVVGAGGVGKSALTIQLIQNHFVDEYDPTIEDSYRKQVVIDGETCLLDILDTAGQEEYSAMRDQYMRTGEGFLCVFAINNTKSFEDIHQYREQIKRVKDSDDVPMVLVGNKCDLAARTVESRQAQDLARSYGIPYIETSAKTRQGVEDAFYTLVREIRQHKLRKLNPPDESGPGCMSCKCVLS
How it was run: (§1)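 Affinity is measured by surface plasmon resonance at 30°C against captured, GDP-loaded RAS carrying a biotinylated Avi tag. Compounds are titrated by single-cycle kinetics, and KD comes from a 1:1 fit.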

[2] = molecular target: GDP-bound NRAS wild-type protein (Homo sapiens, UniProt P01111); assay: Binding to NRAS by surface plasmon resonance (SPR), KD and KD ratio to KRAS; details: ratio of KD for GDP-bound NRAS wild-type protein to KD for KRAS
GDP-bound NRAS wild-type protein, sequence (P01111 whole entry): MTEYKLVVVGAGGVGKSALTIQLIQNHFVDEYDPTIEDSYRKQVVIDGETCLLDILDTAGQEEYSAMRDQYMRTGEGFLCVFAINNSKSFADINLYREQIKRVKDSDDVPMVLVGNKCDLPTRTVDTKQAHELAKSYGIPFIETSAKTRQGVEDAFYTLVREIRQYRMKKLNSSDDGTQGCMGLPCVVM
How it was run: as §1

Compound	IC50 [1]	HRAS /KRAS (HRAS wild-type protein)	NRAS /KRAS [2]
CCO[C@@H]1C[C@H]2C(=O)NC3(CC(C)(C)C3)C(=O)N(C)[C@@H](C3CCCC3)C(=O)N(C)[C@H](C(=O)N3CCCC3)CC(=O)N(C)[C@H]3CCCCCc4ccc(cc4)C[C@@H](C(=O)N(C)CC(=O)N[C@@H](CCc4ccc(C(F)(F)F)c(OC)c4)C(=O)N2C1)N1CC/C=C\C[C@@H](C1=O)N(C)C(=O)CN(C)C(=O)[C@H]([C@@H](C)CC)NC3=O [PP3037]	3.4 nM	B (a compound having 3 or more and less than 10 is denoted as B)	A (a compound having 10 or more and less than 20 is denoted as A)
CCCO[C@@H]1C[C@H]2C(=O)NC3(CC(C)(C)C3)C(=O)N(C)[C@@H](C(CC)CC)C(=O)N(C)[C@H](C(=O)N(C)C)CC(=O)N(C)[C@H]3CCCCc4ccc(cc4)C[C@@H](C(=O)N(C)CC(=O)N[C@@H](CCc4ccc(C(F)(F)F)c(OC)c4)C(=O)N2C1)N1CC/C=C\C[C@@H](C1=O)N(C)C(=O)CN(C)C(=O)[C@H]([C@@H](C)CC)NC3=O [PP3038]	3.1 nM	A (a compound having 10 or more and less than 20 is denoted as A)	A (a compound having 10 or more and less than 20 is denoted as A)
CCO[C@@H]1C[C@H]2C(=O)NC3(CCC3)C(=O)N(C)[C@@H](C(CC)CC)C(=O)N(C)[C@H](C(=O)N3CCCC3)CC(=O)N(C)[C@H]3CCC/C=C/c4ccc(cc4)C[C@@H](C(=O)N(C)CC(=O)N[C@@H](CCc4ccc(Cl)c(Cl)c4)C(=O)N2C1)N1CC/C=C\C[C@@H](C1=O)N(C)C(=O)CN(C1CC1)C(=O)[C@H]([C@@H](C)CC)NC3=O [PP3040]	10 nM	A (a compound having 10 or more and less than 20 is denoted as A)	AA (a compound having 20 or more is denoted as AA)
CCO[C@@H]1C[C@H]2C(=O)NC3(CC(C)(C)C3)C(=O)N(C)[C@@H](C(CC)CC)C(=O)N(C)[C@H](C(=O)N(C)C)CC(=O)N(C)[C@H]3CCCC/C=C/c4ccc(cc4)C[C@@H](C(=O)N(C)CC(=O)N[C@@H](CCc4cc(F)c(C(F)(F)F)c(F)c4)C(=O)N2C1)N1CC/C=C\C[C@@H](C1=O)N(C)C(=O)CN(C)C(=O)[C@H]([C@@H](C)CC)NC3=O [PP3044]	7.1 nM	A (a compound having 10 or more and less than 20 is denoted as A)	AA (a compound having 20 or more is denoted as AA)
CCO[C@@H]1C[C@H]2C(=O)NC3(CC(C)(C)C3)C(=O)N(C)[C@@H](C(CC)CC)C(=O)N(C)[C@H](C(=O)N(C)C)CC(=O)N(C)[C@H]3CCCC/C=C/c4ccc(cc4)C[C@@H](C(=O)N(C)CC(=O)N[C@@H](CCc4ccc(Cl)c(Cl)c4)C(=O)N2C1)N1CC/C=C\C[C@@H](C1=O)N(C)C(=O)CN(C)C(=O)[C@H]([C@@H](C)CC)NC3=O [PP3045]	15.9 nM	A (a compound having 10 or more and less than 20 is denoted as A)	AA (a compound having 20 or more is denoted as AA)
CCO[C@@H]1C[C@H]2C(=O)NC3(CCC3)C(=O)N(C)[C@@H](C(CC)CC)C(=O)N(C)[C@H](C(=O)N3CCCCC3)CC(=O)N(C)[C@H]3CCCC/C=C/c4ccc(cc4)C[C@@H](C(=O)N(C)CC(=O)N[C@@H](CCc4ccc(Cl)c(Cl)c4)C(=O)N2C1)N1CC/C=C\C[C@@H](C1=O)N(C)C(=O)CN(C)C(=O)[C@H]([C@@H](C)CC)NC3=O [PP3046]	16.7 nM	A (a compound having 10 or more and less than 20 is denoted as A)	AA (a compound having 20 or more is denoted as AA)
CCO[C@@H]1C[C@H]2C(=O)NC3(CCC3)C(=O)N(C)[C@@H](C(CC)CC)C(=O)N(C)[C@H](C(=O)N3CCCC3)CC(=O)N(C)[C@H]3CCCC/C=C/c4ccc(cc4)C[C@@H](C(=O)N(C)CC(=O)N[C@@H](CCc4ccc(Cl)c(Cl)c4)C(=O)N2C1)N1CC/C=C\C[C@@H](C1=O)N(C)C(=O)CN(C)C(=O)[C@H]([C@@H](C)CC)NC3=O [PP3047]	6.1 nM	A (a compound having 10 or more and less than 20 is denoted as A)	AA (a compound having 20 or more is denoted as AA)
CCO[C@@H]1C[C@H]2C(=O)NC3(CC(C)(C)C3)C(=O)N(C)[C@@H](C(CC)CC)C(=O)N(C)[C@H](C(=O)N(C)C)CC(=O)N(C)[C@H]3CCCCC/C=C/c4ccc(cc4)C[C@@H](C(=O)N(C)CC(=O)N[C@@H](CCc4cc(F)c(C(F)(F)F)c(F)c4)C(=O)N2C1)N1CC/C=C\C[C@@H](C1=O)N(C)C(=O)CN(C)C(=O)[C@H]([C@@H](C)CC)NC3=O [PP3048]	11.1 nM	A (a compound having 10 or more and less than 20 is denoted as A)	A (a compound having 10 or more and less than 20 is denoted as A)
CCO[C@@H]1C[C@H]2C(=O)NC3(CCC3)C(=O)N(C)[C@@H](C3CCCC3)C(=O)N(C)[C@H](C(=O)N3CCCC3)CC(=O)N(C)[C@H]3CCCCC/C=C/c4ccc(cc4)C[C@@H](C(=O)N(C)CC(=O)N[C@@H](CCc4ccc(Cl)c(Cl)c4)C(=O)N2C1)N1CC/C=C\C[C@@H](C1=O)N(C)C(=O)CN(C)C(=O)[C@H]([C@@H](C)CC)NC3=O [PP3049]	12.6 nM	A (a compound having 10 or more and less than 20 is denoted as A)	AA (a compound having 20 or more is denoted as AA)
CCO[C@@H]1C[C@H]2C(=O)NC3(CC(C)(C)C3)C(=O)N(C)[C@@H](C(CC)CC)C(=O)N(C)[C@H](C(=O)N(C)C)CC(=O)N(C)[C@H]3CCCCC/C=C/c4ccc(cc4)C[C@@H](C(=O)N(C)CC(=O)N[C@@H](CCc4ccc(Cl)c(Cl)c4)C(=O)N2C1)N1CC/C=C\C[C@@H](C1=O)N(C)C(=O)CN(C)C(=O)[C@H]([C@@H](C)CC)NC3=O [PP3050]	19.3 nM	A (a compound having 10 or more and less than 20 is denoted as A)	AA (a compound having 20 or more is denoted as AA)
CCO[C@@H]1C[C@H]2C(=O)NC3(CCC3)C(=O)N(C)[C@@H](C(CC)CC)C(=O)N(C)[C@H](C(=O)N3CCCCC3)CC(=O)N(C)[C@H]3CCCCC/C=C/c4ccc(cc4)C[C@@H](C(=O)N(C)CC(=O)N[C@@H](CCc4ccc(Cl)c(Cl)c4)C(=O)N2C1)N1CC/C=C\C[C@@H](C1=O)N(C)C(=O)CN(C)C(=O)[C@H]([C@@H](C)CC)NC3=O [PP3051]	42.1 nM	A (a compound having 10 or more and less than 20 is denoted as A)	AA (a compound having 20 or more is denoted as AA)
CCO[C@@H]1C[C@H]2C(=O)NC3(CCC3)C(=O)N(C)[C@@H](C(CC)CC)C(=O)N(C)[C@H](C(=O)N3CCCC3)CC(=O)N(C)[C@H]3CCCCC/C=C/c4ccc(cc4)C[C@@H](C(=O)N(C)CC(=O)N[C@@H](CCc4ccc(Cl)c(Cl)c4)C(=O)N2C1)N1CC/C=C\C[C@@H](C1=O)N(C)C(=O)CN(C)C(=O)[C@H]([C@@H](C)CC)NC3=O [PP3052]	27.6 nM	A (a compound having 10 or more and less than 20 is denoted as A)	AA (a compound having 20 or more is denoted as AA)
CC[C@H](C)[C@@H]1NC(=O)[C@@H]2CCC/C=C/c3ccc(cc3)C[C@@H](C(=O)N(C)CC(=O)N[C@@H](CCc3ccc(Cl)c(Cl)c3)C(=O)N3C[C@H](OC4CCC4)C[C@H]3C(=O)NC3(CC(C)(C)C3)C(=O)N(C)[C@@H](C3CCCC3)C(=O)N(C)[C@H](C(=O)N3CCCC3)CC(=O)N2C)N2CC/C=C\C[C@@H](C2=O)N(C)C(=O)CN(C)C1=O [PP3053]	27 nM	A (a compound having 10 or more and less than 20 is denoted as A)	A (a compound having 10 or more and less than 20 is denoted as A)
CC[C@H](C)[C@@H]1NC(=O)[C@@H]2CCC/C=C/c3ccc(cc3)C[C@@H](C(=O)N(C)CC(=O)N[C@@H](CCc3ccc(Cl)c(Cl)c3)C(=O)N3C[C@H](OC4CCCC4)C[C@H]3C(=O)NC3(CC(C)(C)C3)C(=O)N(C)[C@@H](C3CCCC3)C(=O)N(C)[C@H](C(=O)N3CCCC3)CC(=O)N2C)N2CC/C=C\C[C@@H](C2=O)N(C)C(=O)CN(C)C1=O [PP3054]	38.4 nM	A (a compound having 10 or more and less than 20 is denoted as A)	A (a compound having 10 or more and less than 20 is denoted as A)
CCO[C@@H]1C[C@H]2C(=O)N(C)C3(CC(C)(C)C3)C(=O)N(C)[C@@H](C3CCCC3)C(=O)N(C)[C@H](C(=O)N(C)C)CC(=O)N(C)[C@H]3CCC/C=C/c4ccc(cc4)C[C@@H](C(=O)N(C)CC(=O)N[C@@H](CCc4cc(F)c(C(F)(F)F)c(F)c4)C(=O)N2C1)N1CC/C=C\C[C@@H](C1=O)N(C)C(=O)CN(C)C(=O)[C@H]([C@@H](C)CC)NC3=O [PP3060]	2.7 nM	B (a compound having 3 or more and less than 10 is denoted as B)	B (a compound having 3 or more and less than 10 is denoted as B)
CCO[C@@H]1C[C@H]2C(=O)N(C)C3(CC(C)(C)C3)C(=O)N(C)[C@@H](C3CCCC3)C(=O)N(C)[C@H](C(=O)N(C)C)CC(=O)N(C)[C@H]3CCCC/C=C/c4ccc(cc4)C[C@@H](C(=O)N(C)CC(=O)N[C@@H](CCc4ccc(Cl)c(Cl)c4)C(=O)N2C1)N1CC/C=C\C[C@@H](C1=O)N(C)C(=O)CN(C)C(=O)[C@H]([C@@H](C)CC)NC3=O [PP3062]	6.3 nM	A (a compound having 10 or more and less than 20 is denoted as A)	A (a compound having 10 or more and less than 20 is denoted as A)
CCCO[C@@H]1C[C@H]2C(=O)NC3(CC(C)(C)C3)C(=O)N(C)[C@@H](C(CC)CC)C(=O)N(C)[C@H](C(=O)N(C)C)CC(=O)N(C)[C@H]3CCCc4ccc(cc4)C[C@@H](C(=O)N(C)CC(=O)N[C@@H](CCc4ccc(C(F)(F)F)c(OC)c4)C(=O)N2C1)N1CC/C=C\C[C@@H](C1=O)N(C)C(=O)CN(C)C(=O)[C@H]([C@@H](C)CC)NC3=O [PP3063]	32.2 nM	B (a compound having 3 or more and less than 10 is denoted as B)	B (a compound having 3 or more and less than 10 is denoted as B)
